PMC8191290, “Substrate specificities and reaction kinetics of the yeast oligosaccharyltransferase isoforms” (The Journal of Biological Chemistry, 2021)

Target: T1, OST3 complex (Saccharomyces cerevisiae, UniProt P39007)
T1 construct: were purified separately from strains expressing only one type of complex; made in house; host or cells: Saccharomyces cerevisiae, BY4742-derived strain ost6::LEU2MX6 OST4-1D4::kanMX6 YEp352-OST3
Assay: Synthetic LLO preferences, OST3 complex
Format: biochemical
Settings: OST3 complex 0.09 μM, 25 μM TAMRA-YANATS, 50 μM LLO; n = 3
Experimental: Figure 5 OST3 complex turns over both glycosylation substrates faster than the OST6 complex, but with similar substrate affinities.A, enzyme activity of OST3 and OST6 complexes. Reactions were performed with 25 μM peptide TAMRA-YANATS, 50 μM LLO C20, and varying concentrations of purified OST3 complex (blue) or OST6 complex (red). Glycopeptide product was measured by UPLC and initial rates of reaction were determined by linear regression of the initial phase of the reaction. Turnover rates were determined by linear regression of the initial rates of reaction measured across the enzyme concentrations of 0.01–0.1 μM for OST3 complex and 0.1–0.5 μM for OST6 complex. Error bars indicate standard deviations from the mean of three reaction sets (n = 3). B, synthetic LLO preferences of OST3 and OST6 complexes. […] Turnover rates were determined by linear regression of the initial phase of the reaction and accounting for the enzyme concentration in the reaction. […] C, quantification of kinetic parameters for the synthetic LLO C20. […] Turnover rates were determined by linear regression of the initial phase of the reaction and accounting for the enzyme concentration in the reaction. […] D, quantification of kinetic parameters for the peptide TAMRA-YANATS. […] Turnover rates were determined by linear regression of the initial phase of the reaction and accounting for the enzyme concentration in the reaction. […]

CC(=O)N[C@H]1[C@@H](OP(=O)(O)OP(=O)(O)OC/C=C(\C)CC/C=C(\C)CCC=C(C)C)O[C@H](CO)[C@@H](O[C@@H]2O[C@H](CO)[C@@H](O)[C@H](O)[C@H]2NC(C)=O)[C@@H]1O [LLO C15]
turnover rate ranking among LLO analogs: lowest reaction rates
